Test: Population PK (PPK) model of MDMA and MDA (NONMEM)
Design: species or system human
From the text: This example describes the methodology that was used to characterize the PPK of MDMA and its active minor metabolite MDA and the related model-based simulations.
For the PPK analysis, an individual was defined as evaluable if the following criteria were satisfied: • 1. Received at least one dose of MDMA • 2. Had at least one measurable MDMA observation with associated sampling time and dosing information for the MDMA modeling • 3. Had at least one measurable paired MDMA/MDA observation with associated sampling time and dosing information for the MDMA modeling
The evaluation of the impact of covariates on the MDMA and MDA PPK models focused on the most clinically relevant covariates. Prior to covariate selection, a correlation matrix was generated to determine the correlation between covariates. Only the most significant covariate among the highly correlated covariates was included in the model.
Software Nonlinear mixed-effects modeling software (NONMEM®; version 7.4; ICON, Hanover, MD, US), a software package for nonlinear mixed-effects analysis was used for the PPK modeling. R (version 4.0.2) was used for simulations (e.g., to derive exposure measures for subsequent model application analysis).
Algorithms for the Development of the Population PK Model Plasma concentration-time data was analyzed using a nonlinear mixed effects modeling approach. The first-order conditional estimation method of NONMEM with interaction (FOCE INTER) was used for PPK model development.
One-, and two-compartment models were evaluated for MDMA based on the shape of the observed concentration-time profile. MDMA absorption was evaluated in two ways: as a first-order process and as a sequential zero-order process followed by first-order absorption. MDA was developed as a sequential model, with one-, two, and three-compartment models tested.
They were modeled assuming a log-normal distribution as given by the following expression: θki=θk×e^ηk^i where θki denotes the k^th parameter value for the i^th patient, θk denotes the typical parameter value, and ηki denotes the inter-individual random effect for the i^th patient—assumed to have mean of 0 (zero) and variance ωk^2. Collectively, the vector of random effects (across the parameters indexed by k) has the covariance matrix Ω. Covariance matrix structures including diagonal and blocked diagonal structures were evaluated after the completion of covariate model building. The residual error structure was assumed to follow an additive, proportional, or combined additive and proportional error model described by the following:
The subset of covariate-parameter relationships to be included was selected based on exploratory graphical analysis, mechanistic plausibility, and scientific and clinical interest. […] This was either the covariate with the strongest influence as determined by exploratory graphical analysis or the variable that is most meaningful from a clinical, biological, or practical perspective. Continuous covariates were preferred over categorized covariates with the same meaning.
However, graphical covariate analysis can be relied on only if n-shrinkage in the respective population model parameters is low. Covariates that fulfilled the above criteria were tested in a stepwise process. The covariate selection was performed using a forward addition process followed by backward elimination. The likelihood ratio test was used to evaluate the significance of incorporating or removing fixed effects into the population model based on significance levels that were set a priori. For forward addition and backward elimination, significance levels of 0.01 and 0.001 were employed, respectively. The improvement of the model relative to the base model was compared after each of the covariates was added univariately, and the model with the largest improvement was kept for the next evaluation step, given that there was an overall statistical significance supporting the inclusion of the respective covariate. […]

[1] = MPXF (N =16), population parameter, IIV not included
[2] = 5th percentile of body weight (52 kg)
[3] = 95th percentile of body weight (97 kg)

With `CC(N)Cc1ccc2c(c1)OCO2` (stereo not shown) [MDA, 3,4-methylenedioxyamphetamine] the “MDA Clearance, CLM, post hoc Geo. mean” value (MPXF (N =16)) was 29.7 L/h, the “MDA Intercompartmental Clearance, QM, post hoc Geo. mean” value (MPXF (N =16)) was 68.4 L/h and the “MDA Central Volume, V3” value [1] was 20.8 L. For the same compound, the “CLM, base model estimate” value (base MDA model) was 35.6 L/h, the “IIV on CLM” value (base MDA model) was 37.7 and the “IIV on QM” value (base MDA model) was 55.8. The “IIV on V4” value (base MDA model) was 43.5, the “V3, base model estimate” value (base MDA model) was 19.4 L and the “lower V4 (MDA peripheral volume of distribution)” value (female compared to male subjects) was 18%. The “Body weight effect on CLM, Bootstrap median” value (final MDA model) was 0.585, the “Body weight effect on CLM, estimate” value (final MDA model) was 0.580 and the “Body weight effect on QM, Bootstrap median” value (final MDA model) was 1.02. The “Body weight effect on QM, estimate” value (final MDA model) was 1.00, the “CLM, Bootstrap median” value (final MDA model) was 83.9 L/h and the “CLM, final model estimate” value (final MDA model) was 79.6 L/h. For the same compound, the “Sex effect on V4, Bootstrap median” value (final MDA model) was −0.18, the “V4, Bootstrap median” value (final MDA model) was 213 L and the “V4, final model estimate” value (final MDA model) was 213 L.

For `CNC(C)Cc1ccc2c(c1)OCO2` (stereo not shown) [MDMA, 3,4-methylenedioxymethamphetamine], the “higher MDMA AUC0-44 relative to reference individual” value [2] was 30%, the “higher MDMA Cmax relative to reference individual” value [2] was 30% and the “lower MDMA AUC0-44 relative to reference individual” value [3] was 28%. The “lower MDMA Cmax relative to reference individual” value [3] was 25%, the “Cmax MDMA, post hoc Geo. mean” value (MPKF Fasted 120 mg (N = 16)) was 246.0 ng/mL and the “Cmax MDMA, post hoc Geo. mean” value (MPKF Fed 120 mg (N = 14)) was 197.3 ng/mL. For the same compound, the “Post Hoc Absorption Rate, Geo. mean (Geo. CV %)” value (MPKF Fed (N = 14), high fat meal) was 0.6 (50.2) 1/h, the “Post Hoc Absorption Rate, Geo. mean (Geo. CV %)” value (MPKT Fasted (N = 16)) was 3.5 (47.0) 1/h and the “Duration of zero order absorption, D1, post hoc Geo. mean” value (MPXF (N =16)) was 0.4 h. The “Half-life MDMA, t½, post hoc Geo. mean” value (MPXF (N =16)) was 8.7 h, the “MDMA Apparent Volume of Distribution, V, post hoc Geo. mean” value (MPXF (N =16)) was 368.3 L and the “Lag time, ALAG” value [1] was 0.3 h. For the same compound, the “time to complete clearance (5 half-lives)” value (assumed) was 38.5 to 43.5 h, the “ALAG1, base model estimate” value (base MDMA model) was 0.312 h and the “CL/F, base model estimate” value (base MDMA model) was 38.3 L/h. For the same compound, the “D1, base model estimate” value (base MDMA model) was 0.242 h, the “IIV on D1” value (base MDMA model) was 159 and the “IIV on Ka” value (base MDMA model) was 55.9. For the same compound, the “IIV on V2/F” value (base MDMA model) was 28.5, the “V2/F, base model estimate” value (base MDMA model) was 444 L and the “ka, base model estimate” value (base MDMA model) was 1.14 h⁻¹. For the same compound, the “ALAG1, Bootstrap median” value (final MDMA model) was 0.323 h, the “ALAG1, final model estimate” value (final MDMA model) was 0.322 h and the “Body weight effect on V2/F, Bootstrap median” value (final MDMA model) was 0.884. The “Body weight effect on V2/F, estimate” value (final MDMA model) was 0.885, the “CL/F, Bootstrap median” value (final MDMA model) was 41.8 L/h and the “CL/F, final model estimate” value (final MDMA model) was 41.5 L/h. The “D1, Bootstrap median” value (final MDMA model) was 0.271 h, the “D1, final model estimate” value (final MDMA model) was 0.304 h and the “Fasted status effect on KA, Bootstrap median” value (final MDMA model) was 1.08. For the same compound, the “Fasted status effect on KA, estimate” value (final MDMA model) was 1.93, the “Fed status effect on KA, Bootstrap median” value (final MDMA model) was −0.496 and the “Fed status effect on KA, estimate” value (final MDMA model) was −0.484. The “IIV on D1” value (final MDMA model) was 153, the “IIV on KA” value (final MDMA model) was 60.2 and the “IIV on V2/F” value (final MDMA model) was 19.9. The “Study effect on V2/F, Bootstrap median” value (final MDMA model) was −0.267, the “Study effect on V2/F, estimate” value (final MDMA model) was −0.263 and the “V2/F, Bootstrap median” value (final MDMA model) was 461 L. The “V2/F, final model estimate” value (final MDMA model) was 462 L, the “ka, Bootstrap median” value (final MDMA model) was 1.17 h⁻¹ and the “ka, final model estimate” value (final MDMA model) was 1.17 h⁻¹. For the same compound, the “lower Ka” value (subjects fed a high fat diet) was 49%.
